Data set [1] in a line: Pharmacokinetics of IM and CGP74588 in patient plasma. It counts as in vivo, human. To be noted: for increase of AUC (0–24 h) at D14 versus D10 / increase of Cmax at D14 versus D10: after IL-2 co-administration D10-D14, IM 400 mg/day; for AUC(0-inf): human, plasma.
Data set [2] has as its system lymphocytes, neutrophils and platelets. Briefly: Blood cell counts during treatment. To be noted: between D1 and D10, IM alone. Format: in vivo, human.
The test system of data set [3] is GIST with KIT exon 11 mutations. As to conditions: cited from earlier work.

Counter-ions that a name gives are not always drawn.

As for `Cc1ccc(NC(=O)c2ccc(CN3CCNCC3)cc2)cc1Nc1nccc(-c2cccnc2)n1` [CGP74588, N-desmethyl-imatinib], in data set [1] (IM 400 mg/day, mean ± SD), the “accumulation ratio (D10 to D1 trough concentration ratio)” value came to 1.93 ± 0.69. The “increase of AUC (0–24 h) at D14 versus D10” value in data set [1] is given as 61%. Besides, the “increase of Cmax at D14 versus D10” value in data set [1] stood at 49%. In addition, the “AUC (0–24h)” value was 13400 ng·h/mL in data set [1] (patient #8, IL-2 dose level III, no toxicity) and 25100 ng·h/mL in data set [1] (patient #10, IL-2 dose level III, grade 3 systemic capillary leak syndrome).

Take `Cc1ccc(NC(=O)c2ccc(CN3CCN(C)CC3)cc2)cc1Nc1nccc(-c2cccnc2)n1` [IM, imatinib mesylate]: in data set [2], the “lymphocyte, neutrophil or platelet counts” value was “no significant modifications”. Moreover, in data set [3], the “median OS” value was 60 mo and the “median time to progression” value was 27.2 mo. Moreover, in data set [1], the “increase of AUC (0–24 h) at D14 versus D10” value was 61% and the “increase of Cmax at D14 versus D10” value was 49%. Moreover, the total exposure AUC(0-inf) in data set [1] (im, 400 mg/day) was 64100 ng·h/mL. The same compound had an AUC(0-inf) in data set [1] (oral, 400 mg) of 39700 ng·h/mL.

Source of the values: publication PMC3601177 (Oncoimmunology, 2013).
